Data taken from PMC11200585, “Prospects for Prostate Cancer Chemotherapy: Cytotoxic Evaluation and Mechanistic Insights of Quinolinequinones with ADME/PK Profile” (Biomedicines, 2024).

Legend:
Format in all cases: cell-based, human
SN12C = assay: NCI-60 five-dose assay (renal cancer); settings: 48 h, SRB
DU-145 = assay: NCI-60 five-dose assay (prostate cancer); settings: 48 h, SRB
NCI-H226 [1] = assay: NCI-60 five-dose assay (non-small cell lung cancer); settings: 48 h, SRB
T-47D = assay: NCI-60 five-dose assay (breast cancer); settings: Homo sapiens, T47D, 48 h, SRB
UACC-62 = assay: NCI-60 five-dose assay (melanoma); settings: 48 h, SRB
SF-268 = assay: NCI-60 one-dose screen (CNS cancer); settings: 10 µM single dose, 48 h
Procedure: (§1) The obtained quinolinequinones were submitted to NCI, Bethesda, USA, and, as per standard protocol of NCI, all compounds were evaluated for their antiproliferative activity at single-dose assay (10 µM concentration in DMSO) on a panel of 60 cancer cell lines derived from leukemia, non-small-cell lung, colon, CNS, melanoma, ovarian, renal, prostate, and breast, as per protocol. Tested compounds were added to the microtiter culture plates followed by incubation for 48 h at 37 °C. Sulforhodamine B (SRB), a protein-binding dye, is used for endpoint determination. The percent of the growth of the treated cells was determined in comparison to the untreated control cells and the results of each tested compound were reported. Data from one-dose experiments pertain to the percentage growth at 10 μM [16, 17, 18].

SNB-75 = assay: NCI-60 one-dose screen (CNS cancer); settings: 10 µM single dose, 48 h
Procedure: as §1

SF-295 = assay: NCI-60 one-dose screen (CNS cancer); settings: 10 µM single dose, 48 h
Procedure: as §1

SNB-19 = assay: NCI-60 one-dose screen (CNS cancer); settings: 10 µM single dose, 48 h
Procedure: as §1

U251 = assay: NCI-60 one-dose screen (CNS cancer); settings: 10 µM single dose, 48 h
Procedure: as §1

SF-539 = assay: NCI-60 one-dose screen (CNS cancer); settings: 10 µM single dose
Procedure: as §1

SK-MEL-28 = assay: NCI-60 five-dose assay (melanoma); settings: 48 h, SRB
A549/ATCC [2] = assay: NCI-60 five-dose assay (non-small cell lung cancer); settings: 48 h, SRB
COLO 205 = assay: NCI-60 five-dose assay (colon cancer); settings: 48 h, SRB
CCRF-CEM [3] = assay: NCI-60 one-dose screen (leukemia); settings: 10 µM single dose, 48 h
Procedure: as §1

HL-60(TB) [4] = assay: NCI-60 one-dose screen (leukemia); settings: 10 µM single dose, 48 h
Procedure: as §1

RPMI-8226 = assay: NCI-60 one-dose screen (leukemia); settings: 10 µM single dose, 48 h
Procedure: as §1

SR = assay: NCI-60 one-dose screen (leukemia); settings: 10 µM single dose, 48 h
Procedure: as §1

K-562 [5] = assay: NCI-60 one-dose screen (leukemia); settings: 10 µM single dose, 48 h
Procedure: as §1

MOLT-4 = assay: NCI-60 one-dose screen (leukemia); settings: 10 µM single dose, 48 h
Procedure: as §1

NCI-H23 [6] = assay: NCI-60 one-dose screen (non-small cell lung cancer); settings: 10 µM single dose, 48 h
Procedure: as §1

HOP-92 = assay: as above; settings: 10 µM single dose, 48 h
Procedure: as §1

EKVX [7] = assay: as above; settings: 10 µM single dose
Procedure: as §1

NCI-H460 = assay: as above; settings: 10 µM single dose, 48 h
Procedure: as §1

A549/ATCC [8] = assay: as above; settings: 10 µM single dose, 48 h
Procedure: as §1

NCI-H226 [9] = assay: as above; settings: 10 µM single dose
Procedure: as §1

NCI-H522 = assay: as above; settings: 10 µM single dose, 48 h
Procedure: as §1

HOP-62 = assay: as above; settings: 10 µM single dose, 48 h
Procedure: as §1

NCI-H322M [10] = assay: as above; settings: 10 µM single dose, 48 h
Procedure: as §1

K-562 [11] = assay: NCI-60 five-dose assay (leukemia); settings: SRB
NCI-H322M [12] = assay: NCI-60 five-dose assay (non-small cell lung cancer); settings: 48 h, SRB
HL-60(TB) [13] = assay: NCI-60 five-dose assay (leukemia); settings: 48 h, SRB
HCT-116 = assay: NCI-60 one-dose screen (colon cancer); settings: 10 µM single dose, 48 h
MDA-MB-435 = assay: NCI-60 five-dose assay (melanoma); settings: 48 h, SRB
NCI-H23 [14] = assay: NCI-60 five-dose assay (non-small cell lung cancer); settings: 48 h, SRB
EKVX [15] = assay: as above; settings: 48 h, SRB
MCF7 = assay: NCI-60 five-dose assay (breast cancer); settings: 48 h, SRB
M14 = assay: NCI-60 five-dose assay (melanoma); settings: 48 h, SRB
CCRF-CEM [16] = assay: NCI-60 five-dose assay (leukemia); settings: 48 h, SRB
[17] = Homo sapiens, read-out: LC50 (the source's name)

## COc1ccccc1NC1=C(Cl)C(=O)c2nc(C)ccc2C1=O [AQQ1]
SN12C
  TGI: 3.29 µM
SN12C; Homo sapiens
  GI50: 1.7 µM
  LC50 (concentration killing 50% of starting cells): 6.36 µM
DU-145
  TGI: 3.11 µM
DU-145; Homo sapiens
  GI50: 1.72 µM
DU-145; [17]
  CC50: 5.62 µM
NCI-H226 [1]
  TGI: 4.52 µM
NCI-H226 [1]; Homo sapiens
  GI50: 1.93 µM
  LC50: 14.1 µM
T-47D
  GI50: 1.37 µM
T-47D; read-out: LC50 (the source's name)
  CC50: > 100 µM
UACC-62
  TGI: 3.37 µM
UACC-62; Homo sapiens
  GI50: 1.82 µM
  LC50 (concentration killing 50% of cells): 6.25 µM
SF-268
  GP (growth percentage): 47.42%
SNB-75
  GP (growth percentage): 105.38%
SF-295
  GP (growth percentage): 96.61%
SNB-19
  GP (growth percentage): 38.92%
U251
  GP (growth percentage): 62.79%
SF-539; 48 h
  GP (growth percentage): 1.78%
SF-539; Homo sapiens
  inhibition at 10 µM: 98.2%
SK-MEL-28
  TGI: 3.34 µM
SK-MEL-28; Homo sapiens
  GI50: 1.85 µM
  LC50: 6.02 µM
A549/ATCC [2]
  TGI: 6.24 µM
A549/ATCC [2]; Homo sapiens
  GI50: 2.44 µM
A549/ATCC [2]; [17]
  CC50: 45.2 µM
COLO 205
  TGI: 3.87 µM
COLO 205; Homo sapiens
  GI50: 1.78 µM
CCRF-CEM [3]
  GP (growth percentage): −4.94%
HL-60(TB) [4]
  GP (growth percentage): −48.05%
RPMI-8226
  GP (growth percentage): −30.44%
SR
  GP (growth percentage): −27.92%
K-562 [5]
  GP (growth percentage): −21.12%
MOLT-4
  GP (growth percentage): −39.00%
NCI-H23 [6]
  GP (growth percentage): −8.37%
HOP-92
  GP (growth percentage): −83.81%
EKVX [7]; 48 h
  GP (growth percentage): 28.52%
EKVX [7]; Homo sapiens
  inhibition at 10 µM: 71.5%
NCI-H460
  GP (growth percentage): 70.83%
A549/ATCC [8]
  GP (growth percentage): 101.36%
NCI-H226 [9]; 48 h
  GP (growth percentage): 29.65%
NCI-H226 [9]; Homo sapiens
  inhibition at 10 µM: 70.3%
NCI-H522
  GP (growth percentage): −48.50%
HOP-62
  GP (growth percentage): 74.12%
NCI-H322M [10]
  GP (growth percentage): 71.14%
K-562 [11]; 48 h
  TGI: 2.94 µM
K-562 [11]; Homo sapiens, K562, 48 h
  GI50: 0.29 µM
  LC50: > 100 µM
NCI-H322M [12]
  TGI: 7.69 µM
NCI-H322M [12]; Homo sapiens
  GI50: 2.5 µM
NCI-H322M [12]; [17]
  CC50: 27.6 µM
HL-60(TB) [13]
  TGI: 3.52 µM
HL-60(TB) [13]; Homo sapiens
  GI50: 1.37 µM
HL-60(TB) [13]; [17]
  CC50: 9.03 µM
HCT-116
  GP (growth percentage): −80.64%
MDA-MB-435
  TGI: 3.11 µM
MDA-MB-435; Homo sapiens
  GI50: 1.7 µM
MDA-MB-435; [17]
  CC50: 5.67 µM
NCI-H23 [14]
  TGI: 3.30 µM
NCI-H23 [14]; Homo sapiens
  GI50: 1.47 µM
NCI-H23 [14]; [17]
  CC50: 7.45 µM
EKVX [15]
  TGI: 3.05 µM
EKVX [15]; Homo sapiens
  GI50: 1.61 µM
EKVX [15]; [17]
  CC50: 5.78 µM
MCF7
  TGI: 4.49 µM
MCF7; Homo sapiens
  GI50: 1.78 µM
  LC50: > 100 µM
M14
  TGI: 3.81 µM
M14; Homo sapiens
  GI50: 1.82 µM
  LC50: 7.96 µM
CCRF-CEM [16]
  TGI: 8.21 µM
CCRF-CEM [16]; Homo sapiens
  GI50: 1.94 µM
  LC50 (concentration killing 50% of cells): > 100 µM
